Measured values from patent publication US10196356B2, “Mixed disulfide conjugates of thienopyridine compounds and uses thereof” (The Regents of the University of Michigan, priority 2013, dated 2019).
Like-named read-outs stand apart in the source and are kept apart here.

Assays:
[1] = Rate of formation of the AM from 2-oxoclopidogrel by HLMs in the presence of various thiol reductants; assay type: in vitro ADME, human; conditions: 0.3 mM thiol reductant; HLM, 0.1 mM 2-oxoclopidogrel
Experimental: The AM was produced in 0.1 ml of 50 mM KP buffer (pH 7.4) containing 0.2 mg/ml HLM, 0.1 mM 2-oxoclopidogrel, the NADPH-regenerating system, and the thiol reductants. The concentrations of the thiol reductants were 1 mM except for CPT, DFT and NPT which were 0.3 mM each. The reaction was initiated by the addition of 5 units of G6PD and incubated at 37° C. for 20 min. The active metabolite was then quantitated as the MP derivative as described in Materials and Methods. The reported rates were averaged over three separate measurements.
To examine the effects of various thiol reductants on the formation of the active metabolite (AM), the rates at which the AM was produced were determined. Production of the AM was performed in 0.1 ml of 50 mM potassium phosphate (KPi) buffer (pH 7.4) containing 0.2 mg/mL HLM, 0.1 mM 2-oxoclopidogrel, the NADPH-regenerating system, and 1 mM of each of the thiol reductants except that 0.3 mM CPT, DFT, or NPT were used. The reaction was initiated by the addition of 5 units of glucose-6-phosphate dehydrogenase (G6PD) and incubated at 37° C. for 20 min. The AM was then derivatized with 4 mM MPB at room temperature for 10 min, followed by acidification with acetic acid to 3% (v/v). For quantification, 50 pmoles of (S)-clopidogrel was added into each reaction mixture as internal standard (IS). The derivatized AM (AM-MP) was quantitated using LC-MS/MS.
The MS analyses of the reaction mixture were performed on an ion-trap mass spectrometer (LCQ DecaXP, Thermo Fisher Scientific, Waltham, Mass.) as reported previously (Zhang et al., 2012). In brief, the metabolites of 2-oxoclopidogrel were separated on a reverse phase C18 column (2×100 mm, 3 μm, Phenemonex, Calif.) using a binary mobile phase at a flow rate of 0.2 ml/min. The temperature of the C18 column was maintained at 40° C. using a column heater (Restek Corporation, Lancaster, Pa.). […] Transitions from m/z 504→m/z 354 for the AM-MP and from m/z 322→m/z 212 for the IS were used to quantitate the amount of the AM-MP based on a calibration curve consisting of various concentrations of cis-clopidogrel-MP.

[2] = Formation of mixed disulfide conjugates of clopidogrel by HLMs (Km of thiol); assay type: in vitro ADME, human; conditions: 2-oxoclopidogrel, read-out: Km for the formation of the mixed disulfide conjugate
Experimental: The mixed disulfide conjugates were produced by HLMs for both structural and semi-quantitative analyses. Metabolism of 2-oxoclopidogrel was performed in 0.2 ml of 50 mM KP buffer (pH 7.4) as described above except that the concentration of HLMs was increased to 1 mg/ml. The reaction was incubated at 37° C. for 30 min and then quenched by the addition of 0.1 ml of 10% of acetic acid in acetonitrile. The quenched samples were centrifuged at 13,000×g for 10 min to remove the HLMs. Aliquots of 50 μl of the supernatant were loaded onto a mass spectrometer to analyze both the active and conjugate metabolites.
The MS analyses were performed as described above except that the MS detector was operated in the dependent scan mode. The precursor ions were scanned from m/z 300-700, whereas the MS^2 spectra were obtained from m/z 100 to 700 for the four most abundant ions. For semi-quantitative analysis, 50 pmoles of the IS was spiked into each sample that had been quenched. The relative amounts of the AM and respective conjugates were calculated as the AUC ratios of the metabolites to that of the IS.

platelet aggregation = test: In vivo antiplatelet activity after intravenous injection; design: species or system male New Zealand (NZ) white rabbits
Experimental: FIG. 9 presents platelet activities of male NZ white rabbits following IV injection of (S)-clopNPT as described in Example X.
The antiplatelet activity of the mixed disulfide conjugates of clopidogrel was determined using male NZ white rabbits (1.2-1.25 kg).
To prepare intravenous solution, (S)-clopNPT was dissolved at 0.7 mg/ml in a mixture of N,N-dimethylacetamide (DMA), polyethylene glycol (PEG) 400, and saline at 5, 15 and 80 (v/v) ratio. The male NZ white rabbits were dosed at 2 mg/kg of (S)-clopNPT using two different methods. In Method 1, the intravenous solution was first mixed with 5 mM glutathione. After an incubation of 15 min at 37° C. to activate (S)-clopNPT, the mixture was intravenously injected to the rabbit via the jugular vein. In Method 2, the male NZ white rabbit was fed with 5 ml of Readisorb glutathione solution once daily for three days to increase cellular glutathione concentrations. On the third day, (S)-clopNPT dissolved in DMA/PEG400/saline was injected intravenously to the Readisorb-treated rabbit. As a negative control, (S)-clopidogrel was dosed intravenously to a male NZ white rabbit at 2 mg/kg as well. Prior to and 1 and 2 hours after dosing (S)-clopNPT, whole blood was drawn from the carotid artery into a plastic syringe containing 3.7% sodium citrate as the anticoagulant (1:10 volume ratio of citrate to blood). A whole blood cell count was determined with a Medonic CA620 hematology analyzer (Clinical Diagnostic Solutions, Inc., Plantation, Fla., USA). Platelet-rich plasma (PRP), the supernatant present after centrifugation of whole blood at 100×g for 10 min, was diluted with platelet-poor plasma (PPP) to achieve a platelet count of approximately 300,000/μl. […] Platelet aggregation was assessed by established nephelometric methods with the use of a 4-channel aggregometer (BioData PAP-4; BioData Corp., Horsham, Pa., USA) by recording the increase in light transmission through a stirred suspension of PRP maintained at 37° C. […]

[3] = read-out: Km for GSH; previously reported (Zhang 2012); cited from earlier work
[4] = tested on: platelets (P2Y12 receptor); test: Ex vivo anti-platelet activity of the mixed disulfide conjugates (ADP-induced aggregation, aggregometer); assay type: cell-based, New Zealand white rabbits; conditions: free GSH 1 mM in PRP; 10 μM ADP
Experimental: The mixed disulfide conjugates were prepared and purified from the reaction mixtures in the presence of 0.3 mM CPT and NPT, along with three control samples containing either 1 mM GSH, no thiol reductant or no G6PD. All samples were re-suspended in 0.5 ml PPP, some of which were treated to 1 mM GSH to release the AM. Platelet aggregation was initiated by the addition of 10 μM ADP and recorded with an aggregometer. The percentage of aggregation was normalized to that of PRP and averaged over four separate measurements. For details, see Materials and Methods. Legend: PRP, untreated platelet-rich plasma; GSH, 1 mM GSH in PRP; −G6PD, metabolites produced in the absence of G6PD; —SH, metabolites produced in the absence of any thiol reductants; GSH, metabolites produced in the presence of 1 mM GSH; CPT, metabolites produced in the presence of 0.3 mM CPT; CPT+GSH, metabolites produced in the presence of 0.3 mM CPT and then treated with 1 mM GSH; NPT, metabolites produced in the presence of 0.3 mM NPT; NPT+GSH, metabolites produced in the presence of 0.3 mM NPT and then treated with 1 mM GSH.
In order to generate sufficient quantities of the mixed disulfide conjugates, the metabolism of 2-oxoclopidogrel was performed in 2-ml reaction mixtures containing 1 mg/ml HLM, 0.1 mM 2-oxoclopidogrel, the NADPH-regenerating system, and 0.3 mM CPT or NPT or 1 mM GSH. The reaction was initiated by the addition of 10 units G6PD and incubated at 37° C. for 50 min. Two control samples were prepared in parallel. […] After an incubation of 50 min, the reaction mixtures were centrifuged at 13,000×g to remove the HLMs. The supernatants were loaded onto SPE C18 cartridges to enrich the mixed disulfide conjugates. After extensive washing with water to remove salts and other water-soluble metabolites, the conjugate samples were eluted with 2 ml of methanol. The methanolic fractions were dried using a Speedvac concentrator and the dried samples were then re-suspended in 1 ml of platelet-poor plasma (PPP). Prior to the anti-platelet activity assays, the re-suspended conjugates were divided into two equal volumes (0.5 ml each), one of which was treated with 1 mM GSH at 37° C. for 30 min to generate the AM. Both samples were then placed on ice until use.
The procedures used to determine ex vivo anti-platelet activity were previously reported (see, e.g., Abell L M and Liu E C (2011) J Pharm Exp Ther 339(2):589-596).
Male New Zealand white rabbits (2.2-2.9 kg) were used as blood donors. Whole blood was drawn from a central ear artery into a plastic syringe containing 3.7% sodium citrate as the anticoagulant (1:10 volume ratio of citrate to blood). A whole blood cell count was determined with a Medonic CA620 hematology analyzer (Clinical Diagnostic Solutions, Inc., Plantation, Fla., USA). Platelet-rich plasma (PRP), the supernatant present after centrifugation of whole blood at 100×g for 10 min, was diluted with PPP to achieve a platelet count of approximately 300,000/μl. Platelet-poor plasma was prepared by centrifuging the remaining blood at 1,500×g for 10 min and discarding the bottom cellular layer. The diluted PRP was divided into 0.5 ml samples, centrifuged again at 170×g for 10 mins, and the resulting supernatant was discarded. The platelet pellets were re-suspended in platelet-poor plasma containing the various chemical inhibitors prepared as described previously and incubated with gentle shaking at 37° C. for 60 min to modify the P2Y12 receptor. Ex vivo platelet aggregation was assessed by established nephelometric methods with the use of a 4-channel aggregometer (BioData PAP-4; BioData Corp., Horsham, Pa., USA) by recording the increase in light transmission through a stirred suspension of PRP maintained at 37° C. Platelet aggregation was induced with ADP (10 μM). A subaggregatory concentration of epinephrine (550 nM) was used to prime the platelets before addition of the agonist.

| Structure (SMILES) | formation of the AM (in words) [1] | Km [2] [µM] | also measured |
| --- | --- | --- | --- |
| COC(=O)[C@H](c1ccccc1Cl)N1CCc2sccc2C1 [(S)-clopidogrel, (+)-(S)-methyl 2-(2-chlorophenyl)-2-(6,7-dihdrothieno[3,2-c]pyridine-5(4H)-yl)acetate, reference compound] |  |  | inhibition of platelet aggregation (in words) (platelet aggregation; 2 mg/kg intravenously, blood 1 and 2 hours after dosing, 10 μM ADP): did not inhibit platelet aggregation |
| O=[N+]([O-])c1cccnc1S [NPT, 3-nitropyridine-2-thiol] | No AM was observed | 51 |  |
| N[C@@H](CCC(=O)N[C@@H](CS)C(=O)NCC(=O)O)C(=O)O [GSH, glutathione, reference compound] |  |  | Km [3]: 300 µM; effect on platelet aggregation [4]: no effect on platelet aggregation |
| COC(=O)C(c1ccccc1Cl)N1CCC(SSc2ncccc2[N+](=O)[O-])C(=CC(=O)O)C1 [(S)-clopNPT] |  |  | inhibition of platelet activity (platelet aggregation; 2 mg/kg IV, Readisorb-treated rabbit, within one hour of IV injection): ~70%; inhibition of platelet aggregation (platelet aggregation; 2 mg/kg IV, dosed with glutathione or to Readisorb glutathione treated rabbit): more than 50% |

Now from value to molecule, other results behind:

| formation of the AM (in words) [1] | Km [2] [µM] | Structure (SMILES) | also measured |
| --- | --- | --- | --- |
| No AM was observed | 30 | Cc1cc(S)c(C)o1 [DFT, 2,5-dimethylfuran-3-thiol] |  |
| No AM was observed | 23 | Sc1ccc(Cl)nn1 [CPT, 6-chloropyridazine-3-thiol] |  |
